Results: patent EP3366672B9, “BIPHENYL COMPOUND AND APPLICATION THEREOF” (Shenyang Sinochem Agrochemicals R & D Co., Ltd., priority 2015, dated 2017)

What was measured:
Format in all cases: in vivo
[1] = tested on: deutonymph of spider mite (Tetranychuscinnabarinus); assay: Greenhouse test against deutonymph of spider mite, spray on bean leaves; conditions: after 72 h
Experimental: Ten healthy female adult spider mites (Tetranychuscinnabarinus) were put into two true leaves of bean plants. The adult spider mites were removed after 24 h and the eggs were to be continued incubating. After ten days, the number of deutonymph were investigated and recorded. The solution of certain concentrations of test compounds was sprayed by using a sprinkler. Three replicates were set for each treatment. Then the deutonymph of spider mites were maintained in standard observation room. After 72 h, the survival mites in each leaf were observed, and mortality of the mites was determined.

[2] = tested on: citrus red mite (Panonychuscitri); assay: Field trial against citrus red mite (Jiangxi, China)
Experimental: The trial was carried out in a 2-year-old Shatang orange orchard in Ganzhou city Jiangxi province, trifoliate orange trees were selected as stocks, the intervals between two plants was 1.50 × 2.50 m, the average height was 1.45 m and the crown width was 1.30 m. Two trees were selected in each plot, with random arrangement and 4 replications. Compound 1 (10% SC) was set at three different doses (100 mg/L, 50 mg/L and 25 mg/L), spirodiclofen (29% SC) was set at one dose (50 mg/L), and pyridaben (20% EC) was set at one dose (100 mg/L). MatabiSupergreen 16 Knapsack Sprayer 16 Liter was used to spray evenly with 2L of spraying volume for each plant. The plants were treated once in May at that time, adults, nymphs, eggs of citrus red mite all existed, with adults/eggs = 1/1.2. During the day the plants were treated, and the weather was good with the average temperature at 24°C. The first three days after treatment were all clear days. The number of mites was investigated before treatment and on the 1st, 3rd, 7th, 14th, 22nd and 28th day after treatment respectively. Two trees of each plot were investigated according to the five directions of the tree crown (east, south, west, north and central), 5 leaves in each direction were investigated to calculate the number of living mites, with 50 leaves each plot. The decline rate of mite population and corrected efficacy were calculated according to formulas below: The decline rate of mite population(%) = [(the average number of mite on each leaf; before treatment−the average number of mite on each leaf after treatment)/the; average number of mite on each leaf before treatment] × 100. [formula] Corrected efficacy(%) = [(the decline rate of mite population in treated area−the; decline rate of mite population in untreated area)/(100−the decline rate of mite; population in untreated area)] × 100. [formula]

[3] = tested on: egg of spider mite (Tetranychuscinnabarinus); assay: Greenhouse test against egg of spider mite, spray on bean leaf; conditions: eggs, after 5 days
Experimental: Two true leaves of bean plants were taken and one true leaf was removed. Then ten healthy female adult spider mites were put into the true leaf. The adult spider mites were removed after 24 h and the eggs were investigated. The solution of certain concentrations of test compounds was sprayed by using a sprinkler. Three replicates were set for each treatment. The untreated eggs were all incubated after 5 days. The unincubation of treated eggs in leaf was observed, and incubation inhibition rate of the eggs was determined.

Row | Structure (SMILES) | Mortality (%) ([1]; 0.25mg/L) | Mortality (%) ([1]; 0.5mg/L) | Mortality (%) ([1]; 1mg/L) | Corrected efficacy (%) ([2]; 100 mg/L, The 1st day after treatment) | Corrected efficacy (%) ([2]; 100 mg/L, The 3rd day after treatment) | Corrected efficacy (%) ([2]; 100 mg/L, The 7th day after treatment) | Corrected efficacy (%) ([2]; 100 mg/L, The 14th day after treatment) | Corrected efficacy (%) ([2]; 100 mg/L, The 22nd day after treatment) | Corrected efficacy (%) ([2]; 100 mg/L, The 28th day after treatment) | Incubation inhibition rate (%) ([3]; 1mg/L) | Incubation inhibition rate (%) ([3]; 5mg/L) | Incubation inhibition rate (%) [3] [%] | Corrected efficacy (%) ([2]; 50 mg/L, The 1st day after treatment) | Corrected efficacy (%) ([2]; 50 mg/L, The 3rd day after treatment) | Corrected efficacy (%) ([2]; 50 mg/L, The 7th day after treatment) | Corrected efficacy (%) ([2]; 50 mg/L, The 14th day after treatment) | Corrected efficacy (%) ([2]; 50 mg/L, The 22nd day after treatment) | Corrected efficacy (%) ([2]; 50 mg/L, The 28th day after treatment)
1 | CC(C)(C)c1ccc(CSc2cnn(C(C)(C)C)c(=O)c2Cl)cc1 [pyridaben] | 25 | 60 | 84 | 0 | 65 | 90 | 93 | 92 | 95 | – | – | – | – | – | – | – | – | –
2 | CCC(C)(C)C(=O)OC1=C(c2ccc(Cl)cc2Cl)C(=O)OC12CCCCC2 [spirodiclofen] | – | – | – | – | – | – | – | – | – | 37 | 100 | 13 | 20 | 48 | 63 | 80 | 71 | 70
